Assay results taken from patent EP1983049B1, “Peptides binding to the Lck-SH3 and Hck-SH3 domains” (Forschungszentrum Jülich GmbH, priority 2005, dated 2006).
Where no end group is shown, it is not given here.

Assays:
[1] = biological target: T1, Lck-SH3 (Homo sapiens, UniProt P06239); test: PepSpot membrane substitution analysis, relative Lck binding activity; conditions: 7 of 12 positions of PD1-R substituted, 0,5 µg/ml SH3 protein, Fig. 4
T1 construct: Inkubation der Membran mit dem zu untersuchenden Protein (hier Lck-SH3); made in house
T1 sequence (P06239 61-121 limits assumed): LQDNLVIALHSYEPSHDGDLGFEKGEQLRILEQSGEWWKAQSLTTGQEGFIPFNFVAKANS
Text: Eine andere Methode, Protein-Protein-Wechselwirkungen zu untersuchen, ist die Benutzung so genannter PepSpot-Membranen. Sie basiert auf der Synthese von immobilisierten Peptiden auf aktivierten Membrane und kann z. B. zur Optimierung der Bindungseigenschaften bereits identifizierter Liganden durch Substitutionsanalyse verwendet werden. Nach der Inkubation der Membran mit dem zu untersuchenden Protein (hier Lck-SH3) und der anschließenden Detektion wird anhand der Spotfärbung eine Interaktion des Proteins mit den entsprechenden immobilisierten Peptiden nachgewiesen. Die Stärke der Spotintensitäten ist ein Maß für die Stärke der Bindung. Eine zusammenfassende Übersicht findet sich bei Reinecke U., Volkmer-Engert R., Schneider-Mergener J. Applikation of peptide arrays prepared by the SPOT-technology. Current Opinion in Biotechnology 2001, 12:59-64.
Für den Immunoassay wurde die PepSpot-Membran über Nacht in 20 ml Blocking Puffer geblockt. Nach einmaligem Waschen mit T-TBS für 10 min wurde die Membran für 3 h mit 0,5 µg/ml SH3 Protein in 20 ml Blocking Puffer inkubiert. Danach wurde die Membran dreimal für je 10 min mit T-TB S gewaschen. […] Die Spot-Intensitäten wurden mit der QuantityOne Software (Bio-Rad, München) ausgewertet Die Analyse der Spot-Intensitäten erfolgte nach Subtraktion des Hintergrundes. […]

[2] = biological target: Abl SH3 Domäne (Homo sapiens, UniProt P00519); test: Fluorescence titration (intrinsic tryptophan fluorescence), binding constant; conditions: Abl SH3 domain; fluorescence titration, 0,5 µM SH3 domain in PBS, 1mM DDT; each experiment done twice
Chain of Abl SH3 Domäne (P00519 61-121 limits assumed): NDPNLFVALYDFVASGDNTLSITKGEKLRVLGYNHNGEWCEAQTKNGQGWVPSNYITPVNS
Text: (§1) Die Messungen wurden im Wesentlichen wie bei Schweimer K, Hoffmann S, Bauer F, Friedrich U, Kardinal C, Feller SM, Biesinger B, Sticht H. Structural investigation of the bindung of a herpesviral protein to the SH3 domain of tyrosine kinase Lck. Biochemistry. 2002 Apr 23;41(16):5120-30 beschrieben unter Verwendung eines Perkin-Elmer LS 55 Fluoreszenzspektrometers bei einer Anregungswellenlänge von 290 nm und einer Emissionswellenlänge von 345 nm durchgeführt. […] Nach PD1-Zugabe wurde jeweils die resultierende Fluoreszenzänderung aufgezeichnet. Durch eine Kontrolltitration (Hintergrundmessung), bei welcher die Peptidlösung gegen Wasser ersetzt wurde, konnten die Abweichungen der Fluoreszenzweite, welche durch eine sinkende SH3-Endkonzentration während der Titration hervorgerufen wurden, ausgeglichen werden. […] F = Fmin + (([Pges] + [Lges] + Kd)/(2)-sqrt(((([Pges]+[Lges]+Kd))^2)/(4)-[Pges]*[Lges]))*((Fmax-Fmin))/(Pges) [formula]
(§2) Durch nichtlineare Regression mit Fmax und Kd als angepasste Parameter konnten die experimentellen Daten an obige Gleichung angepasst werden.

[3] = biological target: Hck-SH3 (Homo sapiens, UniProt P08631); test: as above; conditions: Hck SH3 domain; fluorescence titration, 0,5 µM SH3 domain in PBS, 1mM DDT; each experiment done twice
Chain of Hck-SH3 (P08631 78-138 limits assumed): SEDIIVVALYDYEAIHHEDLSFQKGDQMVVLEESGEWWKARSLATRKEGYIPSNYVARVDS
Text: as §1, §2

[4] = biological target: T1, Lck-SH3; test: as above; conditions: Lck SH3 domain; fluorescence titration, 0,5 µM free SH3 domain in PBS, 1mM DDT; each experiment done twice
Text: as §1, §2

[5] = biological target: PI3K SH3 Domäne (Homo sapiens, UniProt P27986); test: as above; conditions: PI3K SH3 domain; fluorescence titration, 0,5 µM SH3 domain in PBS, 1mM DDT; each experiment done twice
Chain of PI3K SH3 Domäne (P27986 3-79 limits assumed): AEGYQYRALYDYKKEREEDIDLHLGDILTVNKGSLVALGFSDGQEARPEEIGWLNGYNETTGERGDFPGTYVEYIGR
Text: as §1, §2

[6] = biological target: T2, GST-Lck-SH3 (Homo sapiens, UniProt P06239); test: anti-Phage-ELISA, relative Lck-SH3 binding activity of phage clones; conditions: phage-displayed peptide; detection at 450 nm; Fig. 1; 7 single experiments
T2 construct: rekombinant hergestellte Lck SH3 als Fusion mit Glutathion-S-Transferase (GST-Lck-SH3); made in house
T2 sequence (P06239 61-121 limits assumed): as the sequence (P06239 61-121 limits assumed) above
Text: Dieser Bindungstest ist ein häufig verwendeter Test zur schnellen Bestimmung relativer Bindungsstarken selektierter Peptide, die hierbei noch physikalisch mit dem Phagen verknüpft vorliegen. Dieser Schritt dient auch zur Eliminierung von (bei dieser Methode nicht selten auftretenden) Phagenvarianten, die z. B. aufgrund ihrer Affinität zur Plastikoberfläche der verwendeten Mikrotiterplatten, angereichert werden und die somit zur Verfälschung der Ergebnisse führen können. Eine grundsätzliche Beschreibung der Methode findet sich z. B. unter Sparks et al. Methods Enzymol. 1995; 255:498-509.
GST-Lck-SH3 Protein wurde in einer Konzentration von 10 µg/ml in Tris-Bis über Nacht bei 4°C in Mikrotiterplatten immobilisiert. Verbleibende Bindungsstellen wurden durch 2-stündige Inkubation mit Blockierungspuffer (Bis-Tris mit 2.% Magermilchpulver) abgesättigt.
In einer anderen Mikrotiterplatte wurden zuerst je 100 µl Suspension der zu testenden Phagenvariante mit 100 µl Blockierungspuffer für 20 Minuten vorinkubiert und erst dann für 1 Stunde zum immobilisierten GST-Lck-SH3 Protein gegeben. Nach einem Waschschritt mit Bis-Tris wurde ein Meerrettich-Peroxidase-konjugierter Antikörper zugegeben und die Platten für eine weitere Stunde inkubiert. […]

Sequence | Bindung an die Lck-SH3 (Spot-Intensität) [1] | Kd [2] [µM] | Kd [3] [nM] | Kd [4] [µM] | Kd [5] [µM] | relative Lck-SH3-Bindungsaktivität [6]
HFKRPLPPLPSL [PD1-R(-5)F, substitution variant of PD1-R found on PepSpot membrane] | stärkste Bindung |  |  |  |  | 
HSKRPLPPLPSL [PD1-R] |  | > 300 | 470 ± 20 | 23.1 ± 1.97 | 13.1 ± 0.48 | 
HSKYPLPPLPSL [PD1] |  | > 300 | 230 ± 30 | 48.7 ± 1.65 | 112 ± 10.1 | 
HTLQIPQHATSF |  |  |  |  |  | nicht bindende
